Results on three compounds are retold here after US11638712B2, “Bis(acetamidophenyl) guanidinophenylethylphosphonates for use in the prevention and/or treatment of PAR-related diseases” (Universiteit Antwerpen, priority 2016, dated 2023).

In general, pIC50 refers to the negative decadic logarithm of the IC50, by convention in mol/L.

pIC50: −log10 of the molar value. Where two headings read alike, the source gives them in different places.

For one experiment, the target named is KLK4 (Homo sapiens, UniProt Q9Y5K2). Put plainly: in vitro serine protease inhibition profile: KLK4. In kind it is biochemical.
The next experiment addresses KLK1 (Homo sapiens, UniProt P06870). Nature of the experiment: in vitro serine protease inhibition profile: KLK1. The class given is biochemical.
A further experiment deals with T1, cathepsinG (Homo sapiens, UniProt P08311).
T1 sequence (P08311 21-244): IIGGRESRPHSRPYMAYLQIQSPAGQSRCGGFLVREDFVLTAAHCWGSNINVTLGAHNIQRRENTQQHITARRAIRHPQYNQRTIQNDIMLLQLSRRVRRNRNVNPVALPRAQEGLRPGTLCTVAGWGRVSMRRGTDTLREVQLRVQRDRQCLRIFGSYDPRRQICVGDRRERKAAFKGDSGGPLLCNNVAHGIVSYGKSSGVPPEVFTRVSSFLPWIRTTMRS
Nature of the experiment: in vitro serine protease inhibition profile: cathepsinG. The class given is biochemical.

The next experiment has as its target tPA (Homo sapiens, UniProt P00750). Nature of the experiment: in vitro serine protease inhibition profile: tPA. In kind it is biochemical.
A further experiment has as its target T2, KLK8 (Homo sapiens, UniProt O60259).
T2 sequence (O60259 33-260): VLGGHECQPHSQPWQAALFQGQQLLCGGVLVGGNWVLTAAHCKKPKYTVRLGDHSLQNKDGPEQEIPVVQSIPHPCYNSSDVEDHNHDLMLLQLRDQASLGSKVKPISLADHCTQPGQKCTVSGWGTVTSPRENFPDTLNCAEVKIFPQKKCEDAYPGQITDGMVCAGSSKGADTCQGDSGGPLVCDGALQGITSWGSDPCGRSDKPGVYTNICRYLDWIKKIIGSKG
Put plainly: in vitro serine protease inhibition profile: KLK8. The class given is biochemical.

For a further experiment, the target named is T3, FXIIa (Homo sapiens, UniProt P00748).
T3 construct: panel of serine proteases: uPA, tPA, thrombin, plasmin, FXIIa
Nature of the experiment: in vitro serine protease inhibition profile: FXIIa. The class given is biochemical.

The target in a further experiment is KLK2 (Homo sapiens, UniProt P20151). Put plainly: in vitro serine protease inhibition profile: KLK2. In kind it is biochemical.
The target in another experiment is T4, plasmin (Homo sapiens, UniProt P00747).
T4 construct: panel of serine proteases: uPA, tPA, thrombin, plasmin, FXIIa
Put plainly: in vitro serine protease inhibition profile: plasmin. The class given is biochemical.

The target of a further experiment is tryptase (Homo sapiens, UniProt Q15661). Nature of the experiment: in vitro serine protease inhibition profile: tryptase. In kind it is biochemical.
The target in another experiment is T5, HNE (Homo sapiens, UniProt P08246).
T5 sequence (P08246 30-267): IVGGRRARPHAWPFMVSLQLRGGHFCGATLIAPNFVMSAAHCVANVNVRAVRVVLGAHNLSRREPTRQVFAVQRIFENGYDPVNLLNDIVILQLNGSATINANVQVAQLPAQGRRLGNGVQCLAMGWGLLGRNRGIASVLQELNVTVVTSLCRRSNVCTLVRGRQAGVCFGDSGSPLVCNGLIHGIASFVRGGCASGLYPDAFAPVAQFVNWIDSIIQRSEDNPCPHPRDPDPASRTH
Put plainly: in vitro serine protease inhibition profile: HNE. The class given is biochemical.

The target in the next experiment is T6, matriptase (Homo sapiens, UniProt Q9Y5Y6).
T6 sequence (Q9Y5Y6 1-855): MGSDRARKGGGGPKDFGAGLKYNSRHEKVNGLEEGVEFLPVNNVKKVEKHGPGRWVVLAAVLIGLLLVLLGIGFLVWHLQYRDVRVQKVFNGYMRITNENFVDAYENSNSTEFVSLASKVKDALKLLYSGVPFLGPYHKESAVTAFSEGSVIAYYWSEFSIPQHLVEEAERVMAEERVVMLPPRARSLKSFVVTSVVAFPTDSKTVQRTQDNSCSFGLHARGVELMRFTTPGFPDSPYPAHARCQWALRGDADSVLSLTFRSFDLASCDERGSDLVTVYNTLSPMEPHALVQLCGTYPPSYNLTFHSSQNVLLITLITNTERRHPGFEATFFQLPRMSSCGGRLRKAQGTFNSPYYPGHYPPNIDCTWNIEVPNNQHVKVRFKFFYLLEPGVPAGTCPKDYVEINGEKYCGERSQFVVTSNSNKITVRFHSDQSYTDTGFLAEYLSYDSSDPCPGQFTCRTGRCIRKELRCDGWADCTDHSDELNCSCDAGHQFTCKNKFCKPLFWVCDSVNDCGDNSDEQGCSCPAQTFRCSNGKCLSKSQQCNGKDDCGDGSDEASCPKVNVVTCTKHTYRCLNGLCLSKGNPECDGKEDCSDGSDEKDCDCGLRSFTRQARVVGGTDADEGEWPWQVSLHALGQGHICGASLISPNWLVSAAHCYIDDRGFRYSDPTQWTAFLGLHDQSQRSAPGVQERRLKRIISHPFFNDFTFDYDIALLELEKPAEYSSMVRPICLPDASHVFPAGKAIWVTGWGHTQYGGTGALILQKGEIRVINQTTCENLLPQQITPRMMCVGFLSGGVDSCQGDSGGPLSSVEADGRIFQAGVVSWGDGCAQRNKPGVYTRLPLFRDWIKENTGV
Put plainly: in vitro serine protease inhibition profile: matriptase. In kind it is biochemical.

The target in another experiment is uPA (Homo sapiens, UniProt P00749). Put plainly: in vitro serine protease inhibition profile: uPA. In kind it is biochemical. The following applies: read-out: IC50 uPA.
The next experiment relates to post-colitis rats. Put plainly: post-colitis rat model for visceral pain, visceromotor response (VMR) to colorectal distension. The following applies: post-colitis rats, 10 mg/kg. As to the method: Male Sprague-Dawley rats (200-225 g; Charles River, Italy) were used in all experiments. Rats were housed at a constant room temperature (22±2° C.) and humidity (60%). The animals had unlimited access to water and food and were kept on a 12 h:12 h day-night cycle. They were allowed to acclimatize for at least 1 week before the start of the experiments.
In this set-up, a mild colitis was induced in the post-colitis group on day 0, using a TNBS-enema. The control group received an intrarectal administration with 0.9% NaCl. The presence of colitis was verified by a colonoscopy on day 3. From day 10 onwards, a colonoscopy was performed every 4 days to follow-up the healing of the colonic mucosa. When the colonic mucosa was completely healed, further experiments were performed 3 days later. […] After the VMR measurement, the animals were sacrificed.
TNBS-colitis was induced at day 0 using a TNBS-enema (4 mg TNBS, 50% ethanol). […] Control animals received 0.25 ml 0.9% NaCl intrarectally. The animals were kept in a tail-up position during 1 min and were then allowed to recover in a Trendelenburg position.
Electromyographic (EMG) electrodes were implanted into the external abdominal muscle and 3 days later, the VMR experiment was performed in conscious rats. A lubricated balloon (length 5 cm) was introduced into the colorectum of the animal and connected to a barostat (Distender Series II Barostat, G&J Electronics, Canada). The EMG electrodes were attached to a data-acquisition system and a phasic distension protocol (10-20-30-40-60 mmHg, 20 s, 4 min interval) was sent through the barostat. […] The VMR was quantified using the area under the curve (AUC) of the EMG signal during the distension (20 s) corrected for the EMG signal before the distension (20 s).
22.0. The results of the VMR experiments analyzed using a Generalized Estimating Equations (GEE) test with Least Significant Difference (LSD) post-hoc test. A p-value<0.05 was considered as being statistically significant. The graphs were made with GraphPad Prism 6.0.
Visceral sensitivity was assessed using the visceromotor responses (VMRs) to a colorectal distension, shown in the graphs below as area under the curve (AUC; y-axis; μV.20 s-1) for each distension pressure (x-axis; mmHg). Serine proteases seem to play an important role in the pathogenesis of visceral pain.

The target of the next experiment is T7, thrombin (Homo sapiens, UniProt P00734).
T7 construct: panel of serine proteases: uPA, tPA, thrombin, plasmin, FXIIa
Nature of the experiment: in vitro serine protease inhibition profile: thrombin. The class given is biochemical. As to conditions: read-out: IC50 thrombin.

tPA, sequence (P00750 36-562, species assumed): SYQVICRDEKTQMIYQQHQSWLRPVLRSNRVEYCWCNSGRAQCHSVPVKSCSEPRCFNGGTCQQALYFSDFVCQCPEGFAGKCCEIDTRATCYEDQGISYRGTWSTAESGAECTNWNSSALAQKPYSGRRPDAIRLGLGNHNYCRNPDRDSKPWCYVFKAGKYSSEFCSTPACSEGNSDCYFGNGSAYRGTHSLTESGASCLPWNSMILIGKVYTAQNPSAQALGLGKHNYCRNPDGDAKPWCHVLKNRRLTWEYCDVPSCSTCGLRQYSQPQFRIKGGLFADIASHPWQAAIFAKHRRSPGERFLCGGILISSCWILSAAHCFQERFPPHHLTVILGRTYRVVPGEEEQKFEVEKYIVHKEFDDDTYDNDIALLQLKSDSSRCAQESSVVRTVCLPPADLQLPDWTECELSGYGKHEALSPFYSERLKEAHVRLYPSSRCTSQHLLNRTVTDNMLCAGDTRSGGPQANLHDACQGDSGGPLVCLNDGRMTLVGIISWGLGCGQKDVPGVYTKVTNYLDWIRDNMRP
tryptase, sequence (Q15661 31-275): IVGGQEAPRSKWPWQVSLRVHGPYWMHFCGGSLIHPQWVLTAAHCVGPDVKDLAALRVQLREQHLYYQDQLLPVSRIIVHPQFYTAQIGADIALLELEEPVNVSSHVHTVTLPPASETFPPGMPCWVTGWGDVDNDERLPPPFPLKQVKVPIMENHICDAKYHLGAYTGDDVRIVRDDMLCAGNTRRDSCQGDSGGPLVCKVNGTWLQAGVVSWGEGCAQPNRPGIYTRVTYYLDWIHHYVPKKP
KLK2, sequence (P20151 25-261, species assumed): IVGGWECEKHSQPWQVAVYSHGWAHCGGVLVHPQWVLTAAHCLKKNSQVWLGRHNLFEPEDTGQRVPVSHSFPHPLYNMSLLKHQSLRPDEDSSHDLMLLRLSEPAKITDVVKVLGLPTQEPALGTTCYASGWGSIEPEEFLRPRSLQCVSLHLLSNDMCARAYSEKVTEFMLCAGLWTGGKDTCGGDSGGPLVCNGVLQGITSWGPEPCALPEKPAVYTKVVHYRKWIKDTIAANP
KLK1, sequence (P06870 25-262, species assumed): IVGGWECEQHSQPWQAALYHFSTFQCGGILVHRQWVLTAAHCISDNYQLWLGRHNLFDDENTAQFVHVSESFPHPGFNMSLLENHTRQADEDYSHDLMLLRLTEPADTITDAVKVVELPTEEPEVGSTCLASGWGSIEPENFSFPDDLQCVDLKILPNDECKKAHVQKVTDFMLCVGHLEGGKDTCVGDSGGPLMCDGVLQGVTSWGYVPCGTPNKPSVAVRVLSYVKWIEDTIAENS
T4 sequence (P00747 581-810 limits assumed, species assumed): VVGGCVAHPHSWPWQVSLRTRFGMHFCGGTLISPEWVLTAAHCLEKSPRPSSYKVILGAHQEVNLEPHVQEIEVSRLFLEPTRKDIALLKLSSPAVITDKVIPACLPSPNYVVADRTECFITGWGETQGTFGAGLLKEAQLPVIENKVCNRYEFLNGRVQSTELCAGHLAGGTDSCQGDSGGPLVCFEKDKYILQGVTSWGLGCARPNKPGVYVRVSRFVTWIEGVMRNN
T4 sequence (P00747 97-580 partner limits assumed, species assumed): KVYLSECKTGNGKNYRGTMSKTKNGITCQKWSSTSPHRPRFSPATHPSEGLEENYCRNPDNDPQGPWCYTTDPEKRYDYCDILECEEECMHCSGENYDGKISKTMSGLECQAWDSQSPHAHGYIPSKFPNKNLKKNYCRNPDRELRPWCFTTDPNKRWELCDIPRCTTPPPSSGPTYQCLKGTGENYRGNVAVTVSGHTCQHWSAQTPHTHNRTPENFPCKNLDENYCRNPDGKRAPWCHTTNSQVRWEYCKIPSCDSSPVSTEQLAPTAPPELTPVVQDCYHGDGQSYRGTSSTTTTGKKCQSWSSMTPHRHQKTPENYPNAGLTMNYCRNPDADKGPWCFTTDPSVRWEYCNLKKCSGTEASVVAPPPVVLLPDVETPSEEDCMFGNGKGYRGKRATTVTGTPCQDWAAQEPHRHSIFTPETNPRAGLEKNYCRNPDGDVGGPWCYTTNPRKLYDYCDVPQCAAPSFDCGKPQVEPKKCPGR
KLK4, sequence (Q9Y5K2 31-254, species assumed): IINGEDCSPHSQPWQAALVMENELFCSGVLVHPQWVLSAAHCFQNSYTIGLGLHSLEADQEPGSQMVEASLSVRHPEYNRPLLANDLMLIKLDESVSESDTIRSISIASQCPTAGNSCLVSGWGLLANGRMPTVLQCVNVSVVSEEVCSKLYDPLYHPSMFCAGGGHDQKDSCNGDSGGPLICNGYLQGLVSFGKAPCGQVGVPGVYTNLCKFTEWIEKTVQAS
T3 sequence (P00748 373-615 limits assumed, other chains not shown): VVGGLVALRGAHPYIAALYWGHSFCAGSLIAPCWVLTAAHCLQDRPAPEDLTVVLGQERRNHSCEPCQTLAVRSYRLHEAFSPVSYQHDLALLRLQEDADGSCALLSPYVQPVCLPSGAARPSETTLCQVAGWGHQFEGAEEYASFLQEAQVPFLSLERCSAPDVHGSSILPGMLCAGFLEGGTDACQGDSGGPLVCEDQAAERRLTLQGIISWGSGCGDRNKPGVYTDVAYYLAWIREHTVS

Consider `COC(=O)NC(Cc1ccc(NC(=N)N)cc1)P(=O)(Oc1ccc(NC(C)=O)cc1)Oc1ccc(NC(C)=O)cc1` (centres unmarked) [Compound 2], for which the pIC50 against KLK4 was 7.59; at KLK1, under 5.60; on cathepsinG, 7.21; on tPA, under 5.60; on KLK8, 7.89; against FXIIa it was 5.50. Moreover, the negative-log IC50 (pIC50) against KLK2 is 6.50; on plasmin it was under 5.60; on tryptase, 8.52; at HNE, under 5.60; against matriptase, 8.10.
`N=C(N)Nc1ccc(CC(NC(=O)OCc2ccccc2)P(=O)(Oc2ccccc2)Oc2ccccc2)cc1` (centres unmarked) [Compound 3]: the pIC50 on KLK4 (read-out: IC50 KLK4) was 7.92; against KLK1, under 5.60; at tPA it was under 5.60; at KLK8, 7.38; on KLK2 it was 7.05; against plasmin, under 5.60. Also, the pIC50 is 7.08 at tryptase, under 5.60 at HNE and 6.82 against matriptase.
Regarding `N=C(N)c1ccc2cc(OC(=O)c3ccc(N=C(N)N)cc3)ccc2c1` [Nafamostat], the negative logarithm of the IC50 (pIC50) at KLK1 (read-out: IC50 KLK1) was about 6.00; at tPA (read-out: IC50 tPA), under 5.60; on uPA, over 9.00; at KLK8 (read-out: IC50 KLK8) it was about 7.82; on KLK2 (read-out: IC50 KLK2), about 7.00; on tryptase (read-out: IC50 tryptase), over 9.00. The pIC50 is under 5.60 at HNE (read-out: IC50 HNE) and about 3.30 on thrombin. For the same compound, the “effect on VMRs (visceral pain)” value with post-colitis rats is reported as “no significant effect on visceral pain could be detected”.
